According to US20150259331A1, “PROTOZOAN PARASITE GROWTH INHIBITORS” (Northeastern University, priority 2014, published 2015):
Counter-ions that a name gives are not always drawn. Like-named read-outs stand apart in the source and are kept apart here.

How the values were obtained:
[1] = system: T. brucei brucei Lister 427; experiment: Trypanosome replication assay; assay type: cell-based, Trypanosoma brucei brucei; conditions: 48 h, 48 h, values ±7%
Experimental: (§1) Then 2 μL of DMSO (control) or different concentrations of drugs prepared from 200× DMSO stocks were added to the cultures. Cells were incubated at 37° C. for 48 h and counted with a hemocytometer. […] All experiments were repeated thrice in independent studies where each dose was administered in duplicate (total n=6). HepG2 Cell Toxicity Assay. The 384 well MTT cytotoxicity assay is a modification of the MTT method described by Ferrari et al. optimized for 384-well throughput, with modifications described below.

HepG2 cells = experiment: HepG2 cell toxicity (MTT) assay; assay type: cell-based
Experimental: as §1, with “cultures.” for “cultures. Cells were incubated at 37° C. for 48 h and counted with a hemocytometer.”
HepG2 Cell Toxicity assay. The 384 well MTT cytotoxicity assay is a modification of the MTT method described by Ferrari et al.^1 ENREF—26_ENREF—26_ENREF—26 optimized for 384 well throughput. […] 4.25 μL of diluted test compound was then added to the 38.3 μL of media in each well providing a 10 fold final dilution of compound. […] After a 48 hour incubation period, 8 μL of a 1.5 mg/ml solution of MTT diluted in complete MEM media was added to each well. All plates were subsequently incubated in the dark for 1 hour at room temperature. After incubation, the media and drugs in each well was removed by shaking plate over sink, the plates are then left to dry in hood for 15 minutes. […] Plates are put on a 3-D rotator for 15-30 minutes. Absorbance was determined in all wells using a Tecan iControl 1.6 Infinite plate reader.

T. cruzi = T. cruzi growth inhibition; assay type: cell-based, Trypanosoma cruzi; conditions: for inhibition at 10 µM: read-out: T. cruzi % inh at 10 μM
L. major promastigote = L. major promastigote assay; assay type: cell-based
L. major amastigote = L. major amastigote assay; assay type: cell-based
P. falciparum D6 = P. falciparum D6 assay; assay type: cell-based; conditions: strain D6
P. falciparum W2 = P. falciparum W2 assay; assay type: cell-based; conditions: strain W2, read-out: P. falciparum W2 (EC50)
P. falciparum C235 = P. falciparum C235 assay; assay type: cell-based; conditions: read-out: P. falciparum C235 (EC50)
[2] = Trypanosoma brucei, concentration giving 50% inhibition of growth of T brucei brucei Lister 427 cells, read-out: Tbb EC50
[3] = Homo sapiens, HepG2, 48 h, MTT, 48 hour incubation, read-out: HepG2 IC50
[4] = Plasmodium falciparum, strain C235

Compound	EC50 [1, 2]	IC50 (HepG2 cells; [3])	inhibition at 10 µM (T. cruzi; Trypanosoma cruzi)	EC50 (L. major promastigote; Leishmania major)	EC50 (L. major amastigote; Leishmania major)	EC50 (P. falciparum D6; Plasmodium falciparum)	EC50 (P. falciparum W2; Plasmodium falciparum)	EC50 (P. falciparum C235; [4])	further results
CN1CCN(S(=O)(=O)c2ccc(-c3ccc4ncnc(Nc5ccc(OCc6cccc(F)c6)c(Cl)c5)c4c3)cc2)CC1 [Compound 10p, N-(3-Chloro-4-((3-fluorobenzyl)oxy)phenyl)-6-(4-((4-methylpiperazin-1-yl)sulfonyl)phenyl)quinazolin-4-amine]	530 nM	> 15000 nM	60%	2800 nM	1600 nM	27 nM	44 nM	39 nM	
CN1CCCN(S(=O)(=O)c2ccc(-c3ccc4ncnc(Nc5ccc(OCc6cccc(F)c6)c(Cl)c5)c4c3)cc2)CC1 [Compound 10q, N-(3-Chloro-4-((3-fluorobenzyl)oxy)phenyl)-6-(4((4-methyl-1,4-diazepan-1-yl)sulfonyl)phenyl)quinazolin-4-amine]	810 nM	1810 nM		3600 nM	2000 nM	46 nM	52 nM	50 nM	EC50 (T. cruzi; Trypanosoma cruzi): 510 nM
O=S(=O)(c1ccc(-c2ccc3ncnc(Nc4ccc(OCc5cccc(F)c5)c(Cl)c4)c3c2)cc1)N1CCSCC1 [Compound 10r, N-(3-Chloro-4-((3-fluorobenzyl)oxy)phenyl)-6-(4-(thiomorpholinosulfonyl)phenyl)quinazolin-4-amine]	470 nM	> 15000 nM	18%	> 15000 nM	> 15000 nM	460 nM	1600 nM		EC50 (P. falciparum C235; Plasmodium falciparum): 760 nM
O=S(=O)(c1ccc(-c2ccc3ncnc(Nc4ccc(OCc5cccc(F)c5)c(Cl)c4)c3c2)cc1)N1CCNCC1 [Compound 10s]									EC50 ([1]; concentration giving 50% inhibition of growth of T brucei brucei Lister 427 cells, read-out: Tbb EC50): 280 nM; IC50 (HepG2 cells; MTT, 48 hour incubation, read-out: HepG2 IC50): 3320 nM; EC50 (T. cruzi): 790 nM; EC50 (L. major promastigote): > 15000 nM; EC50 (L. major amastigote): 800 nM; EC50 (P. falciparum D6): 94 nM; EC50 (P. falciparum W2): 200 nM; EC50 (P. falciparum C235; strain C235): 120 nM
CS(=O)(=O)c1ccc(-c2ccc3ncnc(Nc4ccc(OCc5cccc(F)c5)c(Cl)c4)c3c2)cc1 [Compound 10t, N-(3-Chloro-4-((3-fluorobenzyl)oxy)phenyl)-6-(4-(methylsulfonyl)phenyl)quinazolin-4-amine]	900 nM	> 15000 nM		1600 nM	3900 nM	120 nM	360 nM	200 nM	EC50 (T. cruzi; Trypanosoma cruzi): 650 nM
CS(=O)(=O)c1cccc(-c2ccc3ncnc(Nc4ccc(OCc5cccc(F)c5)c(Cl)c4)c3c2)c1 [Compound 10u, N-(3-Chloro-4-((3-fluorobenzyl)oxy)phenyl)-6-(3-(methylsulfonyl)phenyl)quinazolin-4-amine]		> 15000 nM		3500 nM	4700 nM	520 nM	1300 nM	620 nM	EC50 ([1]; Trypanosoma brucei, read-out: Tbb EC50, concentration giving 50% inhibition of growth of T brucei brucei Lister 427 cells): 3210 nM; EC50 ([1]; read-out: Tbb EC50, concentration giving 50% inhibition of growth of T brucei brucei Lister 427 cells, listed as NEU-633): 3200 nM; EC50 (T. cruzi; Trypanosoma cruzi): 5000 nM
CN(C)S(=O)(=O)c1ccccc1-c1ccc2ncnc(Nc3ccc(OCc4cccc(F)c4)c(Cl)c3)c2c1 [Compound 10v, 2-(4-((3-Chloro-4-((3-fluorobenzyl)oxy)phenyl)amino)-quinazolin-6-yl)-N,N-dimethylbenzenesulfonamide]	1040 nM			2800 nM	> 15000 nM	820 nM	1800 nM		EC50 ([1]; concentration giving 50% inhibition of growth of T brucei brucei Lister 427 cells, listed as NEU-619, read-out: Tbb EC50): 1000 nM; IC50 (HepG2 cells; Homo sapiens, HepG2, 48 h, read-out: HepG2 IC50, MTT, 48 hour incubation): > 15000 nM; EC50 (T. cruzi; Trypanosoma cruzi): 1500 nM; EC50 (P. falciparum C235; Plasmodium falciparum): 1100 nM
O=S(=O)(c1ccc(-c2ccc3ncnc(Nc4ccccc4)c3c2)cc1)N1CCOCC1 [Compound 20a, 6-(4-(Morpholinosulfonyl)phenyl)-N-phenylquinazolin-4-amine Hydrochloride]	1440 nM	> 3000 nM	13%	4100 nM	4100 nM	4100 nM	4100 nM	4100 nM	EC50 ([1]; concentration giving 50% inhibition of growth of T brucei brucei Lister 427 cells, listed as NEU-548, Hydrochloride, read-out: Tbb EC50): 1400 nM
Cc1ccc(Nc2ncnc3ccc(-c4ccc(S(=O)(=O)N5CCOCC5)cc4)cc23)cc1 [Compound 20b, 6-(4-(Morpholinosulfonyl)phenyl)-N-(p-tolyl)quinazolin-4-amine Hydrochloride]	1150 nM	> 15000 nM	59%	450 nM	> 15000 nM	1700 nM	6200 nM	2800 nM	EC50 ([1]; concentration giving 50% inhibition of growth of T brucei brucei Lister 427 cells, listed as NEU-549, Hydrochloride, read-out: Tbb EC50): 1200 nM
O=S(=O)(c1ccc(-c2ccc3ncnc(Nc4ccc(O)c(Cl)c4)c3c2)cc1)N1CCOCC1 [Compound 20c, 2-Chloro-4-((6-(4-(morpholinosulfonyl)phenyl)quinazolin-4-yl)amino)phenol Hydrochloride]	1060 nM	> 15000 nM	14%	> 15000 nM	> 15000 nM	12000 nM	19000 nM	19000 nM	EC50 ([1]; concentration giving 50% inhibition of growth of T brucei brucei Lister 427 cells, listed as NEU-550, Hydrochloride, read-out: Tbb EC50): 1100 nM
COc1ccc(Nc2ncnc3ccc(-c4ccc(S(=O)(=O)N5CCOCC5)cc4)cc23)cc1Cl [Compound 20d, N-(3-Chloro-4-methoxyphenyl)-6-(4-(morpholinosulfonyl)-phenyl)quinazolin-4-amine Hydrochloride]	820 nM	> 15000 nM	43%	830 nM	4800 nM	810 nM	1700 nM	1200 nM	
O=S(=O)(c1ccc(-c2ccc3ncnc(Nc4ccc(OCc5ccccc5)c(Cl)c4)c3c2)cc1)N1CCOCC1 [Compound 20e, N-(4-(Benzyloxy)-3-chlorophenyl)-6-(4-(morpholinosulfonyl)phenyl)quinazolin-4-amine Hydrochloride]	1350 nM	> 15000 nM	9%	470 nM	> 15000 nM	250 nM	720 nM	450 nM	EC50 ([1]; concentration giving 50% inhibition of growth of T brucei brucei Lister 427 cells, listed as NEU-551, Hydrochloride, read-out: Tbb EC50): 1400 nM
O=S(=O)(c1ccc(-c2ccc3ncnc(Nc4ccc(OCc5cccc(Br)c5)c(Cl)c4)c3c2)cc1)N1CCOCC1 [Compound 20f, N-(4-((3-Bromobenzyl)oxy)-3-chlorophenyl)-6-(4-(morpholinosulfonyl)phenyl)quinazolin-4-amine Hydrochloride]	680 nM	> 15000 nM	7%	14000 nM	470 nM	200 nM	440 nM	410 nM	
O=S(=O)(c1ccc(-c2ccc3ncnc(Nc4ccc(OCc5cccc(Cl)c5)c(Cl)c4)c3c2)cc1)N1CCOCC1 [Compound 20g, N-(3-Chloro-4-((3-chlorobenzyl)oxy)phenyl)-6-(4-(morpholinosulfonyl)phenyl)quinazolin-4-amine Hydrochloride]	660 nM	> 15000 nM	4%	15000 nM	1100 nM	230 nM	660 nM	330 nM	
